In the NIST ThermoML archive (doi:10.1016/j.jct.2005.12.006):
Where “and” joins values, the source holds several entries; their conditions need not be identical. Equal entries are not always repeated.

Experiment: excess molar enthalpy (molar enthalpy of mixing); xn = mol fraction of the nth substance listed
Conditions: 298.15 K, 101 kPa, Liquid, Flow calorimetry

CCCCCCCCN(CCCCCCCC)CCCCCCCC [trioctylamine] + CCCCO
Conditions | excess molar enthalpy
x2 = 0.0623 | 0.16 kJ/mol
x2 = 0.1246 | 0.222 kJ/mol
x2 = 0.1877 | 0.258 kJ/mol
x2 = 0.2503 | 0.279 kJ/mol
x2 = 0.3122 | 0.288 kJ/mol
x2 = 0.3747 | 0.291 kJ/mol
x2 = 0.4373 | 0.285 kJ/mol
x2 = 0.5 | 0.272 kJ/mol
x2 = 0.5625 | 0.257 kJ/mol
x2 = 0.6251 | 0.234 kJ/mol
x2 = 0.6876 | 0.196 kJ/mol
x2 = 0.7501 | 0.148 kJ/mol
x2 = 0.8125 | 0.101 kJ/mol
x2 = 0.875 | 0.0636 kJ/mol and 0.0627 kJ/mol
x2 = 0.9375 | 0.0256 kJ/mol

CCCCN(CCCC)CCCC [tributylamine] + CCCCCC
Conditions | excess molar enthalpy [kJ/mol]
x1 = 0.05 | -0.0047
x1 = 0.0995 | -0.0076
x1 = 0.1495 | -0.0092
x1 = 0.1997 | -0.0092
x1 = 0.2498 | -0.0088
x1 = 0.2992 | -0.0079
x1 = 0.3498 | -0.007
x1 = 0.3991 | -0.006
x1 = 0.449 | -0.0051
x1 = 0.4993 | -0.0043
x1 = 0.5488 | -0.0035
x1 = 0.599 | -0.0027
x1 = 0.6492 | -0.0021
x1 = 0.6989 | -0.0016
x1 = 0.7495 | -0.0013
x1 = 0.7991 | -0.001
x1 = 0.8497 | -0.0008
x1 = 0.9 | -0.0006
x1 = 0.9501 | -0.0004

CCCCN(CCCC)CCCC [tributylamine] + CCCCO
Conditions | excess molar enthalpy [kJ/mol]
x2 = 0.0505 | 0.0382
x2 = 0.1006 | 0.0435
x2 = 0.1507 | 0.0271
x2 = 0.2009 | 0.0048
x2 = 0.2511 | -0.024
x2 = 0.3013 | -0.0472
x2 = 0.3519 | -0.0757
x2 = 0.4018 | -0.1
x2 = 0.4514 | -0.126
x2 = 0.5014 | -0.147
x2 = 0.5513 | -0.168
x2 = 0.6014 | -0.183
x2 = 0.6512 | -0.197
x2 = 0.7011 | -0.205
x2 = 0.7517 | -0.208
x2 = 0.8013 | -0.206
x2 = 0.8514 | -0.195
x2 = 0.9004 | -0.169
x2 = 0.9503 | -0.115
x2 = 0.9698 | -0.0762
x2 = 0.9853 | -0.023

CCCCCCCCN(CCCCCCCC)CCCCCCCC [trioctylamine] + CCCCCC
Conditions | excess molar enthalpy
x1 = 0.0312 | -0.0048 kJ/mol and -0.0049 kJ/mol and -0.005 kJ/mol
x1 = 0.0625 | -0.0088 kJ/mol and -0.0091 kJ/mol and -0.0087 kJ/mol
x1 = 0.0938 | -0.0104 kJ/mol
x1 = 0.125 | -0.0123 kJ/mol and -0.0116 kJ/mol
x1 = 0.1875 | -0.0126 kJ/mol and -0.0129 kJ/mol
x1 = 0.25 | -0.011 kJ/mol and -0.0106 kJ/mol
x1 = 0.3125 | -0.0089 kJ/mol
x1 = 0.375 | -0.0075 kJ/mol
x1 = 0.4375 | -0.0065 kJ/mol
x1 = 0.4999 | -0.0053 kJ/mol
x1 = 0.5625 | -0.0041 kJ/mol
x1 = 0.6249 | -0.0028 kJ/mol
x1 = 0.625 | -0.0029 kJ/mol
x1 = 0.6873 | -0.0022 kJ/mol
x1 = 0.75 | -0.0017 kJ/mol
x1 = 0.8124 | -0.0009 kJ/mol and -0.0007 kJ/mol
x1 = 0.8749 | -0.0004 kJ/mol
x1 = 0.875 | -0.0001 kJ/mol
x1 = 0.9374 | -0.0002 kJ/mol

CCCCCC [hexane] + CCCCO
Conditions | excess molar enthalpy [kJ/mol]
x2 = 0.2065 | 0.537
x2 = 0.2516 | 0.539
x2 = 0.405 | 0.555
x2 = 0.5028 | 0.503
x2 = 0.6056 | 0.44
x2 = 0.7505 | 0.275
x2 = 0.8055 | 0.218
